Tests used:
[1] = system: α-tubulin, p53, and histone H3 acetylation levels; test: Acetylation levels of α-tubulin, p53 and histone H3 by Western blot in cells; type: cell-based; conditions: 3 h of treatment
Text: . As a positive control, we used trichostatin A (TSA), a nonselective HDAC inhibitor against both class I and class IIb HDACs.[25] […]

HDAC11 [2] = molecular target: T1, HDAC11 (Homo sapiens, UniProt Q96DB2); test: HDAC11 enzyme activity assay (Myr-H3K9 peptide, HPLC); type: biochemical; set-up: made in house
T1 sequence (Q96DB2 1-347): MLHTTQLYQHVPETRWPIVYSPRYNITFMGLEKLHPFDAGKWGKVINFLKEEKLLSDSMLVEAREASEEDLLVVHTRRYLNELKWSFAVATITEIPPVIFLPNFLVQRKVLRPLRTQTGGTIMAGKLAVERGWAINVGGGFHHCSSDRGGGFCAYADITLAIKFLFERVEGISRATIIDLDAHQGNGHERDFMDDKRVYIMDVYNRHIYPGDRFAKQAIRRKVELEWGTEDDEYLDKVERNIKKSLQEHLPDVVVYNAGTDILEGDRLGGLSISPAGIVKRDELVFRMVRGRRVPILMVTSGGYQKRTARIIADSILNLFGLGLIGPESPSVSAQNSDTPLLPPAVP
Method: All quantified measurements were performed in triplicates. Data processing was performed using Graphpad Prism 9.5.0. Repeated measures of one-way ANOVA with Fisher’s LSD test were used to determine the P value. The dose–response data was fitted using a two-step nonlinear regression of the Morrison equation. […] HDACs and SIRTs were expressed and purified as previously described.[13] […] For HDAC1, 6, 8, and SIRT1-2, Ac-H3K9 was used as a substrate. […] The reaction was conducted for 15 min (HDAC11), 30 min (HDAC1, 4, 6, 8), and 5 min (SIRT1-2). Then, 20 μL of 0.2% TFA/acetonitrile was added to quench the reaction. The samples were analyzed by HPLC using a Chromolith HighResolution RP-18 end-capped 100 mm × 4.6 mm column (EMD Millipore). Mobile phase A was 0.1% TFA in water and mobile phase B was 0.1% TFA in acetonitrile. The total flow rate was 1 mL/min, and the gradient was 0% B (2 min), 0–60% B (7 min), 100% B (4 min), and 0% B (2 min). The relative ratio of product/substrate in each sample was compared to control sample (no inhibitor) to determine the inhibition level.

HDAC11 [3] = molecular target: T1, HDAC11; test: HDAC11 in cell assay: defatty acylation of SHMT2 (Alk14 labeling, Western blot); type: cell-based; set-up: endogenous in cells; host or cells: HEK293T; conditions: HEK293T cells, 20 μM, 3 h, 50 μM Alk14
Method: We treated HEK293T cells with an alkyne-tagged myristic acid analog, Alk14, along with the inhibitors (TD034, SIS17, or FT895) for 3 h. Click chemistry was performed on cell lysate with Biotin-azide, followed by Streptavidin pulldown. […] HEK293T in a six-well plate at 80% confluency was treated with 50 μM Alk14 and inhibitors at various concentrations. The cells were incubated for 3 h. The cells were harvested and lysed in 200 μL of 4% SDS lysis buffer (50 mM triethanolamine, 150 mM NaCl, 4% SDS, pH 7.4) with a 1:100 protease inhibitor cocktail and 1:1000 nuclease for 15 min. The cell lysates were then diluted with 3.8 mL of HEPES buffer (50 mM HEPES, 150 mM NaCl, 1% NP-40, pH 7.4), and then concentrated using Amicon Ultra-4 (30 kDa cutoff) for 45 min at 4000g. The retained samples were then diluted to 0.5 mL with HEPES buffer, followed by the addition of Biotin-N3 (5 μL, 5 mM in DMF), TBTA (5 μL, 2 mM in DMF), CuSO4 (5 μL, 50 mM in water), and TCEP (5 μL, 50 mM in water). The samples were shaken at 37 °C for 1 h, then diluted with 3 mL of HEPES buffer, and concentrated again using Amicon Ultra-4 (30 kDa cutoff) for 45 min at 4000g. The retained samples were then diluted to 0.5 mL with HEPES buffer, followed by the addition of 20 μg of magnetic streptavidin beads (prewashed with the HEPES buffer). […] The eluants were further analyzed by SDS-PAGE and Western blot for SHMT2.

HDAC11 [4] = molecular target: T1, HDAC11; set-up: method as in PMID 31264832; conditions: cited from earlier work
HDAC4 = HDAC4 (Homo sapiens, UniProt P56524); test: HDAC4 enzyme activity assay (trifluoroacetyl-H3K9, HPLC); conditions: read-out: HDAC4, % inhibition
[5] = system: YAP1 target genes CTGF and CYR61 in A549 cells; test: mRNA level of YAP1 and YAP1 target genes (CTGF, CYR61) by qRT-PCR in A549 cells; type: cell-based; conditions: for mRNA levels of YAP1 target genes CTGF and CYR61: 5 and 10 μM, 24 hr
Method: (§1) A549 cells were treated with TD034 at 5 and 10 μM for 24 hr. Western blot was used to check for YAP1 protein level. qRT-PCR was used to check for YAP1 downstream genes transcription (CTGF and CYR61). Total RNA was extracted using IBI Isolate Total Extraction Reagent Kit (IB47602). […] of RNA was reverse transcribed using OneScript Plus cDNA Synthesis Kit (ABM G236) according to the manufacturer’s protocol. Real-time PCR was performed using BlasTaq 2X qPCR MasterMix (ABM G892) on a QuantStudio 3 Real-Time PCR System. All qPCR reactions were performed in triplicates. The list of primers is included in the Supporting Information.

SIRT2 = molecular target: T2, SIRT2 (Homo sapiens, UniProt Q8IXJ6); test: SIRT2 enzyme activity assay (Ac-H3K9, NAD+, HPLC)
T2 sequence (Q8IXJ6 1-389): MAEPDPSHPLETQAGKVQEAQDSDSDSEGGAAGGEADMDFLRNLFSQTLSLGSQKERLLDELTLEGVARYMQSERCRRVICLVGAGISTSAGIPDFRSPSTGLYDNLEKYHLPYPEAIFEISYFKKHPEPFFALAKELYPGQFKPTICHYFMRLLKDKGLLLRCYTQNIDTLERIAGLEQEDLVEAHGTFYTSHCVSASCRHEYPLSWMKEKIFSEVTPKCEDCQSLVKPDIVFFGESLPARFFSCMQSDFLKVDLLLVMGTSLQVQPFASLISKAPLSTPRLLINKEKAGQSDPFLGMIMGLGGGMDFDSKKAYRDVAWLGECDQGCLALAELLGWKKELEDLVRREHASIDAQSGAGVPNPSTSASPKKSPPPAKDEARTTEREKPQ

SIRT1 = molecular target: T3, SIRT1 (Homo sapiens, UniProt Q96EB6); test: SIRT1 enzyme activity assay (Ac-H3K9, NAD+, HPLC); conditions: read-out: SIRT1, % inhibition
T3 sequence (Q96EB6 1-747): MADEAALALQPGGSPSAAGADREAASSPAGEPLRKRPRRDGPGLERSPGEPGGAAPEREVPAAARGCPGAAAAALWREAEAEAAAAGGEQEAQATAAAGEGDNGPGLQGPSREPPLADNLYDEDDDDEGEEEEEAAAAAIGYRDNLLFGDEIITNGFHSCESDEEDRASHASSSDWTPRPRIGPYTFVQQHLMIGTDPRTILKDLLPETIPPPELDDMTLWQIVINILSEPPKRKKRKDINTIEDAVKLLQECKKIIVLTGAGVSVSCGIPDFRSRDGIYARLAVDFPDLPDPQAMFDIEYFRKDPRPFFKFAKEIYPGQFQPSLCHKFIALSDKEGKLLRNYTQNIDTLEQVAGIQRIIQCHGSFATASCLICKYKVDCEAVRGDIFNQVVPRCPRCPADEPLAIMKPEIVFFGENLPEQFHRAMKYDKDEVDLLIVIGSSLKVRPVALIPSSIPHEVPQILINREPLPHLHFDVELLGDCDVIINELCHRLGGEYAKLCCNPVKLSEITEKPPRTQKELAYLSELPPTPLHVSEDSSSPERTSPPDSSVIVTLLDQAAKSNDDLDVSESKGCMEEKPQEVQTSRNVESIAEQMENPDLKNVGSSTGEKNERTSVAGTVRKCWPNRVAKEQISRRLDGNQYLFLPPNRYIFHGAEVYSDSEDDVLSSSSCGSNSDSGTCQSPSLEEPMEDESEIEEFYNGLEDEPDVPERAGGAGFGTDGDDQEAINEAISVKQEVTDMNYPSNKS

HDAC6 = molecular target: T4, HDAC6 (Homo sapiens, UniProt Q9UBN7); test: HDAC6 enzyme activity assay (Ac-H3K9, HPLC); conditions: read-out: HDAC6, % inhibition
T4 sequence (Q9UBN7 1-1215): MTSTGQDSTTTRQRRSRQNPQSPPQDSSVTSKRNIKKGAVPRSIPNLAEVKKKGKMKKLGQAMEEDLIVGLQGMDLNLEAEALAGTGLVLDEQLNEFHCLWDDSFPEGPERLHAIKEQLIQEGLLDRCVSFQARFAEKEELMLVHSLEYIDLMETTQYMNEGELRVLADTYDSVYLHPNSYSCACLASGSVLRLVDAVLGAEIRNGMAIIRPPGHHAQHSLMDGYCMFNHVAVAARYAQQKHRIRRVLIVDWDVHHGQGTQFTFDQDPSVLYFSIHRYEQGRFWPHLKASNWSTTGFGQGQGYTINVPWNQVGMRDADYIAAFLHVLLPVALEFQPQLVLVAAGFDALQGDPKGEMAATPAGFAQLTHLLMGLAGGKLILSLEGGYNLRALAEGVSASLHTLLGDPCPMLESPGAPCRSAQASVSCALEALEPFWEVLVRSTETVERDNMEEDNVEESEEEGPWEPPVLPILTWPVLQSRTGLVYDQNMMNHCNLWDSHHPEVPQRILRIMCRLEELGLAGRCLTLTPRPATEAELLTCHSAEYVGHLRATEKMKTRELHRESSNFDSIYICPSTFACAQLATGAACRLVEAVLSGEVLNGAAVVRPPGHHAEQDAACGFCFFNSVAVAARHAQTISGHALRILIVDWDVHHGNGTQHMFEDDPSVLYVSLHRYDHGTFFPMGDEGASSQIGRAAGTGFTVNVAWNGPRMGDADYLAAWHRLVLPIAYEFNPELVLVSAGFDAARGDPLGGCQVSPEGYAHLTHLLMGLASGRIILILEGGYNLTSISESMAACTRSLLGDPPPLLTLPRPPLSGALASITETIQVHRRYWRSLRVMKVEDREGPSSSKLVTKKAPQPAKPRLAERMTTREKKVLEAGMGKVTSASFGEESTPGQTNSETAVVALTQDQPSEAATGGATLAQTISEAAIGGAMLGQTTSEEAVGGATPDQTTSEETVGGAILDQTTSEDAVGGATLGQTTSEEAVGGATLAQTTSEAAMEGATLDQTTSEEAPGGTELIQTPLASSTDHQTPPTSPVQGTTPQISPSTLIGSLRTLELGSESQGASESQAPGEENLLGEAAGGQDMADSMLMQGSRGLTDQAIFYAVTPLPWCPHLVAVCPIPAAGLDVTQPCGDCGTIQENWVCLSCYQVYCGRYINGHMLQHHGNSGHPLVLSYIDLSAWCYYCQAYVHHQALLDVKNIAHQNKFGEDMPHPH

HDAC8 = molecular target: T5, HDAC8 (Homo sapiens, UniProt Q9BY41); test: HDAC8 enzyme activity assay (Ac-H3K9, HPLC); conditions: read-out: HDAC8, % inhibition
T5 sequence (Q9BY41 1-377): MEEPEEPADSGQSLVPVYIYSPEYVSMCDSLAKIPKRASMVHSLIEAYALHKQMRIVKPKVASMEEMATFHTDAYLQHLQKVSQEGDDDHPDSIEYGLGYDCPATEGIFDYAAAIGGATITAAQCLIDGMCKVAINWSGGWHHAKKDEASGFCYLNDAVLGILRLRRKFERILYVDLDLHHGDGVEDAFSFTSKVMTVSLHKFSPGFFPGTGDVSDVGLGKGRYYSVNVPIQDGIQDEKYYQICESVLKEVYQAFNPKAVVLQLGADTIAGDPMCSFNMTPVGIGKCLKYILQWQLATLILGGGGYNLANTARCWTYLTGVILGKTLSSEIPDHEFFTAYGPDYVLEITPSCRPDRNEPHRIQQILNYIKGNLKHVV

[6] = system: YAP1 protein level in A549 cells; test: YAP1 protein level by Western blot in A549 cells; type: cell-based; conditions: for YAP1 protein levels: A549 cells, 5 and 10 μM, 24 hr
Method: as §1

HDAC1 = HDAC1 (Homo sapiens, UniProt Q13547); test: HDAC1 enzyme activity assay (Ac-H3K9, HPLC); conditions: read-out: HDAC1, % inhibition
[7] = pH 8

Sequence of HDAC4 (P56524 whole entry): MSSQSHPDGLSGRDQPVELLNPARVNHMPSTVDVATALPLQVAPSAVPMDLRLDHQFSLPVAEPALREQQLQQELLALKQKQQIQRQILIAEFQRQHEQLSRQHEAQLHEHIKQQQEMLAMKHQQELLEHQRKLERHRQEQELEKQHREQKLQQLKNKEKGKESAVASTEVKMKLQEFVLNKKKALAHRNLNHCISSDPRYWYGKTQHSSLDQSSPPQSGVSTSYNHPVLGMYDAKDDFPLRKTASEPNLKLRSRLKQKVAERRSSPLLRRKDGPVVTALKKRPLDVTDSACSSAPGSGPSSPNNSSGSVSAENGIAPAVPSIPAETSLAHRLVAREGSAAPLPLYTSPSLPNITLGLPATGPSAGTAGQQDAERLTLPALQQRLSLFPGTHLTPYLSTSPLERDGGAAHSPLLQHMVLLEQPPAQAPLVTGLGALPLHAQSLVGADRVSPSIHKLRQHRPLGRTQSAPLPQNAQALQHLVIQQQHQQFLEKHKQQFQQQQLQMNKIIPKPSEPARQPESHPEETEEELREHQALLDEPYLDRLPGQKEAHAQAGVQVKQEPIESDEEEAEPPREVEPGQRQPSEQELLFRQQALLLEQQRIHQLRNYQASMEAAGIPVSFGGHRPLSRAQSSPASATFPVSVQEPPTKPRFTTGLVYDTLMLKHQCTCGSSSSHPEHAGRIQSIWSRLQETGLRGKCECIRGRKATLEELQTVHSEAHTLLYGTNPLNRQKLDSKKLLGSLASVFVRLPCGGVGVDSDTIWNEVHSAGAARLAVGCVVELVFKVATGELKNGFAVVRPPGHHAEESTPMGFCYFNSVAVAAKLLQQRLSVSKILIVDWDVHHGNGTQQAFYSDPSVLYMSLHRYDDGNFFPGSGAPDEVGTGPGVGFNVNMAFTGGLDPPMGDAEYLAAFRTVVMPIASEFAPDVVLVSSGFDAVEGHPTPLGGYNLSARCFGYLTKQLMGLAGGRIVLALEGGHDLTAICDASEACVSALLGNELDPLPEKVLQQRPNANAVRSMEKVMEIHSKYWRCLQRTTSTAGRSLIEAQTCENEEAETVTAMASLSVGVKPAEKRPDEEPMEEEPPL
Sequence of HDAC1 (Q13547 whole entry): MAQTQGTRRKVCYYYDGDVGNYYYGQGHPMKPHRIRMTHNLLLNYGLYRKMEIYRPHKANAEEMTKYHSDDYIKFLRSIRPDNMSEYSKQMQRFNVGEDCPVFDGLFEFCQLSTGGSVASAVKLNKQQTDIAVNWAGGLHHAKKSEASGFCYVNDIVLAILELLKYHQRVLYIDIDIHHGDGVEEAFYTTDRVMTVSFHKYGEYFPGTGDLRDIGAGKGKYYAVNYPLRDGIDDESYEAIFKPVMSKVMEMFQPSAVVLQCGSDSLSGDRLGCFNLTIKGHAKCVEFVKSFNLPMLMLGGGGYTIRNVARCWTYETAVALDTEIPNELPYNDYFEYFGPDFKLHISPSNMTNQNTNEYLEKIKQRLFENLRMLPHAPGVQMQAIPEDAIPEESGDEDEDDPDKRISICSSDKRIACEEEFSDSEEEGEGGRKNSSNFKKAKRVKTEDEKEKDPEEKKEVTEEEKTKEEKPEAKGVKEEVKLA

SMILES: CC(/C=C/C(=O)NO)=C\[C@@H](C)C(=O)c1ccc(N(C)C)cc1 [TSA, trichostatin A, reference compound]
- level of acetylated α-tubulin (HDAC6 and SIRT2 target) [1]: elevated level
- levels of acetylated histone H3 and acetylated p53 (class I HDACs and SIRT1 target) [1]: increased levels

SMILES: CCCCCCCCCCC1(C(=O)CCCCC[C@@H]2NC(=O)[C@H]3CCCCN3C(=O)[C@H](Cc3ccccc3)NC(=O)[C@H](Cc3ccccc3)NC2=O)CO1 (stereo partly shown) [TD036]
- HDAC11 inhibition (in words) (HDAC11 [2]): abolished HDAC11 inhibition

SMILES: CCCCCCCCCCCCCCCCNNC(=O)c1cccs1 [SIS17]
- fatty acylation level of SHMT2 (HDAC11 [3]): same effect
- inhibition of HDAC11 demyristoylation activity in vitro (HDAC11 [4]): low micromolar inhibition

SMILES: CCCCCCCCCCC[C@H]1O[C@@H]1C(=O)CCCCC[C@@H]1NC(=O)[C@H]2CCCCN2C(=O)[C@H](Cc2ccccc2)NC(=O)[C@H](Cc2ccccc2)NC1=O [TD034]
- inhibition at 1 µM (HDAC4): 0%
- inhibition at 10 µM (HDAC4): 0%
- inhibition at 25 µM (HDAC4): 0%
- YAP1 mRNA level [5]: not affected
- mRNA levels of YAP1 target genes CTGF and CYR61 [5]: decrease
- IC50 (SIRT2): ~25 µM
- inhibition at 1 µM (SIRT2; read-out: SIRT2, % inhibition): 9%
- inhibition at 10 µM (SIRT2; read-out: SIRT2, % inhibition): 29%
- inhibition at 25 µM (SIRT2; read-out: SIRT2, % inhibition): 54%
- inhibition at 1 µM (SIRT1): 0%
- inhibition at 10 µM (SIRT1): 0%
- inhibition at 25 µM (SIRT1): 0%
- inhibition at 1 µM (HDAC6): 0%
- inhibition at 10 µM (HDAC6): 0%
- inhibition at 25 µM (HDAC6): 0%
- inhibition at 1 µM (HDAC8): 0%
- inhibition at 10 µM (HDAC8): 0%
- inhibition at 25 µM (HDAC8): 0%
- YAP1 protein levels [6]: significant reduction
- YAP1 protein level ([6]; wild-type (WT) A549 cells): reduced
- level of acetylated α-tubulin (HDAC6 and SIRT2 target) [1]: did not have such an effect
- levels of acetylated histone H3 and acetylated p53 (class I HDACs and SIRT1 target) [1]: did not have such an effect
- inhibition at 1 µM (HDAC1): 0%
- inhibition at 10 µM (HDAC1): 0%
- inhibition at 25 µM (HDAC1): 0%
- stability in Tris buffer and DTT [7]: relatively stable

SMILES: O=C(CCCCCCC(=O)Nc1ccccc1)NO [SAHA]
- inhibition of HDAC11 demyristoylation activity in vitro (HDAC11 [4]): cannot efficiently inhibit

SMILES: CCCCCCCCCCC[C@@H]1O[C@H]1C(=O)CCCCC[C@@H]1NC(=O)[C@H]2CCCCN2C(=O)[C@H](Cc2ccccc2)NC(=O)[C@H](Cc2ccccc2)NC1=O [TD034-(R)]
- mRNA levels of YAP1 target genes CTGF and CYR61 [5]: did not observe such an effect
- YAP1 protein levels [6]: did not observe such an effect

From article PMC10127203, “Trapoxin A Analogue as a Selective Nanomolar Inhibitor of HDAC11” (ACS Chemical Biology, 2023)
